PubChem BioAssay AID1963445 (Molecular Pharmacology Branch, DTP, NCI, 2024)
Several values for one entry are separate records, joined by “and”; a condition that tells them apart may be missing. Equal entries are not always repeated.

System: MCF7 complex spheroid growth, % test/control
Experiment: Anticancer human tumor MCF7 cell line growth inhibition [Asc];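 note: spheroids exposed to compounds for 7 days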;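 for viability, T/C: 100% = DMSO vehicle control wells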
Conditions: for viability, T/C: stronger effect = lower value
In short: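 Stromal components (HUVEC and hMSC) are co-assembled with the cancer cells into multicellular spheroids. Drugs are then added singly or paired, at concentrations falling by half-log increments from a clinically achievable maximum, capped at 10 microM without known Cmax.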

[1] = curve of first compound, second compound 0.0316 µM
[2] = curve of first compound, second compound 0.1 µM
[3] = curve of first compound, second compound 0.316 µM
[4] = curve of first compound, second compound 1 µM
[5] = curve of first compound, second compound 3.16 µM
[6] = curve of first compound, second compound 10 µM
[7] = second compound 0.0316 µM, first compound 0.0316 µM
[8] = second compound 0.0316 µM, first compound 0.1 µM
[9] = second compound 0.0316 µM, first compound 0.316 µM
[10] = second compound 0.0316 µM, first compound 1 µM
[11] = second compound 0.0316 µM, first compound 3.16 µM
[12] = second compound 0.0316 µM, first compound 10 µM
[13] = second compound 0.1 µM, first compound 0.0316 µM
[14] = second compound 0.1 µM, first compound 0.1 µM
[15] = second compound 0.1 µM, first compound 0.316 µM
[16] = second compound 0.1 µM, first compound 1 µM
[17] = second compound 0.1 µM, first compound 3.16 µM
[18] = second compound 0.1 µM, first compound 10 µM
[19] = second compound 0.316 µM, first compound 0.0316 µM
[20] = second compound 0.316 µM, first compound 0.1 µM
[21] = second compound 0.316 µM, first compound 0.316 µM
[22] = second compound 0.316 µM, first compound 1 µM
[23] = second compound 0.316 µM, first compound 3.16 µM
[24] = second compound 0.316 µM, first compound 10 µM
[25] = second compound 1 µM, first compound 0.0316 µM
[26] = second compound 1 µM, first compound 0.1 µM
[27] = second compound 1 µM, first compound 0.316 µM
[28] = second compound 1 µM, first compound 1 µM
[29] = second compound 1 µM, first compound 3.16 µM
[30] = second compound 1 µM, first compound 10 µM
[31] = second compound 3.16 µM, first compound 0.0316 µM
[32] = second compound 3.16 µM, first compound 0.1 µM
[33] = second compound 3.16 µM, first compound 0.316 µM
[34] = second compound 3.16 µM, first compound 1 µM
[35] = second compound 3.16 µM, first compound 3.16 µM
[36] = second compound 3.16 µM, first compound 10 µM
[37] = second compound 10 µM, first compound 0.0316 µM
[38] = second compound 10 µM, first compound 0.1 µM
[39] = second compound 10 µM, first compound 0.316 µM
[40] = second compound 10 µM, first compound 1 µM
[41] = second compound 10 µM, first compound 3.16 µM
[42] = second compound 10 µM, first compound 10 µM

`C=CC(=O)N1CCN(c2nc(=O)n(-c3c(C)ccnc3C(C)C)c3nc(-c4c(O)cccc4F)c(F)cc23)C(C)C1` (stereo not drawn) + CCN1C(C(=O)NC23CCC(C(=O)O)(CC2)CC3)C(c2cccc(Cl)c2F)C2(C(=O)Nc3cc(Cl)ccc32)C12CCCCC2 gave an IC50 (curve of first compound, second compound 0.00949 µM) greater than 10 µM, an IC50 (curve of first compound, second compound 0.03 µM) greater than 10 µM and an IC50 (curve of first compound, second compound 0.0949 µM) of 0.585 µM. The IC50 (curve of first compound, second compound 0.3 µM) was less than 0.0316 µM, the IC50 (curve of first compound, second compound 0.949 µM) was less than 0.0316 µM and the IC50 (curve of first compound, second compound 3 µM) was less than 0.0316 µM. For the same compound, the viability, T/C (second compound 0.00949 µM, first compound 0.0316 µM) was 109%, the viability, T/C (second compound 0.00949 µM, first compound 0.1 µM) was 104% and the viability, T/C (second compound 0.00949 µM, first compound 0.316 µM) was 113%. The viability, T/C (second compound 0.00949 µM, first compound 1 µM) was 107%, the viability, T/C (second compound 0.00949 µM, first compound 3.16 µM) was 113% and the viability, T/C (second compound 0.00949 µM, first compound 10 µM) was 91.1%. It also gave a viability, T/C (second compound 0.03 µM, first compound 0.0316 µM) of 96.1%, a viability, T/C (second compound 0.03 µM, first compound 0.1 µM) of 93.7% and a viability, T/C (second compound 0.03 µM, first compound 0.316 µM) of 83.3%. The viability, T/C (second compound 0.03 µM, first compound 1 µM) was 68.2%, the viability, T/C (second compound 0.03 µM, first compound 3.16 µM) was 82.9% and the viability, T/C (second compound 0.03 µM, first compound 10 µM) was 59.8%. It also gave a viability, T/C (second compound 0.0949 µM, first compound 0.0316 µM) of 53.9%, a viability, T/C (second compound 0.0949 µM, first compound 0.1 µM) of 56.4% and a viability, T/C (second compound 0.0949 µM, first compound 0.316 µM) of 55.3%. It also gave a viability, T/C (second compound 0.0949 µM, first compound 1 µM) of 42.5%, a viability, T/C (second compound 0.0949 µM, first compound 3.16 µM) of 45.7% and a viability, T/C (second compound 0.0949 µM, first compound 10 µM) of 35.5%. The viability, T/C (second compound 0.3 µM, first compound 0.0316 µM) was 34.8%, the viability, T/C (second compound 0.3 µM, first compound 0.1 µM) was 33.5% and the viability, T/C (second compound 0.3 µM, first compound 0.316 µM) was 35.6%. The viability, T/C (second compound 0.3 µM, first compound 1 µM) was 33%, the viability, T/C (second compound 0.3 µM, first compound 3.16 µM) was 32% and the viability, T/C (second compound 0.3 µM, first compound 10 µM) was 32.6%. The viability, T/C (second compound 0.949 µM, first compound 0.0316 µM) was 24.5%, the viability, T/C (second compound 0.949 µM, first compound 0.1 µM) was 23.1% and the viability, T/C (second compound 0.949 µM, first compound 0.316 µM) was 20.7%. It also gave a viability, T/C (second compound 0.949 µM, first compound 1 µM) of 25.2%, a viability, T/C (second compound 0.949 µM, first compound 3.16 µM) of 32.1% and a viability, T/C (second compound 0.949 µM, first compound 10 µM) of 21.4%. For the same compound, the viability, T/C (second compound 3 µM, first compound 0.0316 µM) was 16.6%, the viability, T/C (second compound 3 µM, first compound 0.1 µM) was 17.1% and the viability, T/C (second compound 3 µM, first compound 0.316 µM) was 19.1%. It also gave a viability, T/C (second compound 3 µM, first compound 1 µM) of 18.3%, a viability, T/C (second compound 3 µM, first compound 3.16 µM) of 22.1% and a viability, T/C (second compound 3 µM, first compound 10 µM) of 24.2%.
Compound `C=CC(=O)N1CCN(c2nc(=O)n(-c3c(C)ccnc3C(C)C)c3nc(-c4c(O)cccc4F)c(F)cc23)C(C)C1` (stereo not drawn) + Cc1c(S(C)(=O)=O)c(-c2cc(F)cc(N3CCN(c4ccc(NS(=O)(=O)c5ccc(NC(CCN6CCC(C(=O)OCCCP(=O)(O)O)CC6)CSc6ccccc6)c(S(=O)(=O)C(F)(F)F)c5)cc4)CC3)c2)c(-c2ccc(Cl)cc2)n1C(C)C has an IC50 [1] greater than 10 µM, an IC50 [2] greater than 10 µM and an IC50 [3] greater than 10 µM. The IC50 [4] was greater than 10 µM, the IC50 [5] was greater than 10 µM and the IC50 [6] was greater than 10 µM. The viability, T/C [7] was 101%, the viability, T/C [8] was 105% and the viability, T/C [9] was 99.7%. For the same compound, the viability, T/C [10] was 95.5%, the viability, T/C [11] was 112% and the viability, T/C [12] was 85.8%. It also gave a viability, T/C [13] of 92.9%, a viability, T/C [14] of 89.6% and a viability, T/C [15] of 89%. For the same compound, the viability, T/C [16] was 110%, the viability, T/C [17] was 92.3% and the viability, T/C [18] was 87.4%. For the same compound, the viability, T/C [19] was 101%, the viability, T/C [20] was 92.7% and the viability, T/C [21] was 109%. It also gave a viability, T/C [22] of 90.1%, a viability, T/C [23] of 89.5% and a viability, T/C [24] of 81.3%. The viability, T/C [25] was 87.2%, the viability, T/C [26] was 91.4% and the viability, T/C [27] was 102%. The viability, T/C [28] was 97.4%, the viability, T/C [29] was 101% and the viability, T/C [30] was 89.9%. The viability, T/C [31] was 92.9%, the viability, T/C [32] was 94.9% and the viability, T/C [33] was 103%. The viability, T/C [34] was 94.1%, the viability, T/C [35] was 89.5% and the viability, T/C [36] was 86.1%. For the same compound, the viability, T/C [37] was 222%, the viability, T/C [38] was 143% and the viability, T/C [39] was 171%. It also gave a viability, T/C [40] of 195%, a viability, T/C [41] of 233% and a viability, T/C [42] of 168%.
With `CNC(C)C(=O)NC1CN(S(=O)(=O)c2cccc(S(=O)(=O)N3CCC4CCC(C(=O)NC(c5ccccc5)c5ccccc5)N4C(=O)C(NC(=O)C(C)NC)C3)c2)CCC2CCC(C(=O)NC(c3ccccc3)c3ccccc3)N2C1=O` (stereo not drawn) the viability, T/C (compound 0.01 µM) was 14.2% [middle of 9 runs], the viability, T/C (compound 0.0316 µM) was 11.7% [middle of 9 runs] and the viability, T/C (compound 0.1 µM) was 14.7% [middle of 8 runs]. The viability, T/C (compound 0.316 µM) was 13.2% [middle of 9 runs], the viability, T/C (compound 1 µM) was 13.2% [middle of 9 runs] and the IC50 (compound alone, run of 11/15/2022) was less than 0.00316 µM. The IC50 (curve of compound) was 0.00524 µM and 0.00667 µM.
With `C=C(F)C(=O)N1CCN(c2nc(OCC3CCCN3C)nc3c2CCN(c2cccc4cccc(Cl)c24)C3)CC1CC#N` (stereo not drawn) + Cc1c(S(C)(=O)=O)c(-c2cc(F)cc(N3CCN(c4ccc(NS(=O)(=O)c5ccc(NC(CCN6CCC(C(=O)OCCCP(=O)(O)O)CC6)CSc6ccccc6)c(S(=O)(=O)C(F)(F)F)c5)cc4)CC3)c2)c(-c2ccc(Cl)cc2)n1C(C)C the IC50 [1] was 3.44 µM, the IC50 [2] was 4.54 µM and the IC50 [3] was 3 µM. It also gave an IC50 [4] of 3.92 µM, an IC50 [5] of 3.29 µM and an IC50 [6] of 4.23 µM. The viability, T/C [7] was 105%, the viability, T/C [8] was 108% and the viability, T/C [9] was 87.6%. It also gave a viability, T/C [10] of 75.2%, a viability, T/C [11] of 60.7% and a viability, T/C [12] of 0.25%. The viability, T/C [13] was 107%, the viability, T/C [14] was 90.5% and the viability, T/C [15] was 97.3%. The viability, T/C [16] was 95.8%, the viability, T/C [17] was 72.7% and the viability, T/C [18] was 0.14%. For the same compound, the viability, T/C [19] was 103%, the viability, T/C [20] was 88.8% and the viability, T/C [21] was 86.8%. For the same compound, the viability, T/C [22] was 87%, the viability, T/C [23] was 48% and the viability, T/C [24] was 0.13%. It also gave a viability, T/C [25] of 96.3%, a viability, T/C [26] of 82.6% and a viability, T/C [27] of 87.1%. For the same compound, the viability, T/C [28] was 81.5%, the viability, T/C [29] was 61.8% and the viability, T/C [30] was 0.17%. For the same compound, the viability, T/C [31] was 97.9%, the viability, T/C [32] was 86% and the viability, T/C [33] was 84.2%. For the same compound, the viability, T/C [34] was 81.7%, the viability, T/C [35] was 50.8% and the viability, T/C [36] was 0.17%. The viability, T/C [37] was 200%, the viability, T/C [38] was 167% and the viability, T/C [39] was 231%. It also gave a viability, T/C [40] of 223%, a viability, T/C [41] of 66.7% and a viability, T/C [42] of 0.3%.
